Results taken from paper PMC7731314, “Tropinone-Derived Alkaloids as Potent Anticancer Agents: Synthesis, Tyrosinase Inhibition, Mechanism of Action, DFT Calculation, and Molecular Docking Studies” (International Journal of Molecular Sciences, 2020).
Where two headings read alike, the source gives them in different places.

Experiments:
[1] = test system: human multiple myeloma (RPMI 8226) cell line; experiment: MTT cell proliferation assay, RPMI 8226; assay type: cell-based; conditions: antiproliferative, 96 h, read-out: IC50 ± SD RPMI 8226
Method: (§1) The influence of the tested compounds on the proliferation of RPMI 8226 and A549 cells was estimated with the MTT assay as described previously. Briefly, 1 × 10^4 cells/mL (RPMI 8226) or 0.2 × 10^4 (A549) cells per well were seeded into 96-well plates and cultured (in growth medium containing 10% FBS) with different concentrations of each compound ranging from 3.125 to 100 μM. The control cells were treated with the vehicle DMSO (0.1%).

[2] = test system: human lung carcinoma (A549) cell line; experiment: MTT cell proliferation assay, A549; assay type: cell-based; conditions: antiproliferative, 96 h, read-out: IC50 ± SD A549
Method: as §1

[3] = test system: human breast adenocarcinoma (MDA-MB-231) cell line; experiment: MTT cell proliferation assay, MDA-MB-231; assay type: cell-based; conditions: MDA-MB-231, antiproliferative, MTT, 72 h, read-out: IC50 ± SD MDA-MB-231
From the text: The influence of the tested compounds on the proliferation of melanoma B16F10 and breast MDA-MB-231 cells was estimated with the MTT assay as described previously. The cells counted using an automated cell counter (Countess® II FL, Invitrogen by Thermo Fisher Scientific Inc., Waltham, MA USA) and plated in 96-well plates (Nunc Edge 2F, Thermo Fisher Scientific Inc.) at a density of 0.1 × 10^4 and 0.2 × 10^4 per well, respectively. A total of twenty-four hours later, drugs were applied with final concentration: 5, 0.5, 0.05, and 0.005 μg/mL, and after an additional seventy-two hours MTT staining was performed as follows: twenty microliters of 5 mg/mL MTT solution and was added to each well of 96-well plate incubated for 2 h. Subsequently, the medium was removed and crystals of formazan were solubilized in pure isopropanol. Absorbance readout was conducted immediately using plate reader Multiskan Spectrum at 570 nm (Thermo Electron Corporation, Waltham, MA, USA). The background optical density was measured in the wells filled with culture medium, without the cells. The biological evaluation was performed as three independent experiments. The IC50 values were calculated using ED50plus v 1.0 freeware software and the mean response and standard deviation were calculated using Excel software. All of the chemicals were obtained from Sigma-Aldrich.

A549 cells = assay type: cell-based, human
Method: (§2) The RPMI 8226 or A549 cells were seeded in 6-well plates in medium containing 10% FBS without or with compound 3a (2.5, 5, 10, 20, or 40 µM). After 24-h and 48-h treatment, the cell cycle analysis was performed by determination of the DNA contents on the basis of PI staining as described previously. Briefly, the cells were harvested, washed with PBS, and fixed overnight with 80% ethanol at −20 °C. After that, the cells were washed with PBS and stained with PI using PI/RNase Staining Buffer (BD Biosciences, BD Pharmingen™, USA) for 30 min in darkness at RT. Next, the stained cells were analyzed using FACS Calibur. The intensity of PI fluorescence of individual nuclei was determined and at least 10 000 events were measured within an acquisition rate >60 events/s. The FACS data were analyzed using Cell Quest Pro Version 6.0 (BD Biosciences, San Jose, CA, USA). for the Macintosh operating system. The data were analyzed to determine the percentage of cells at the sub-G1 phase (apoptotic cells) and each phase of the cell cycle (G1, S, and G2/M).

RPMI 8226 cells = assay type: cell-based, human
Method: as §2

SMILES: CN1C2CCC1CC(=NNc1nc(-c3ccc(I)cc3)cs1)C2 [Compound 3a, 4-(4-Iodophenyl)-2-(2-(8-methyl-8-azabicyclo[3.2.1]octan-3-ylidene)hydrazinyl)thiazole]
- IC50 [1]: 9.32 ± 0.71 µM
- IC50 [2]: 13.8 ± 1.9 µM
- IC50 [3]: 2.26 ± 0.38 µM
- Cell cycle distribution G0/G1 (A549 cells; A549, 2.5 µM, 24 h): 64.49±1.89 % of cells
- Cell cycle distribution G2/M (A549 cells; A549, 2.5 µM, 24 h): 14.68±2.11 % of cells
- Cell cycle distribution S (A549 cells; A549, 2.5 µM, 24 h): 12.39±2.34 % of cells
- Cell cycle distribution sub-G1 (A549 cells; A549, 2.5 µM, 24 h): 8.81±3.73 % of cells
- Cell cycle distribution G0/G1 (A549 cells; A549, 2.5 µM, 48 h): 73.22±1.97 % of cells
- Cell cycle distribution G2/M (A549 cells; A549, 2.5 µM, 48 h): 8.91±2.22 % of cells
- Cell cycle distribution S (A549 cells; A549, 2.5 µM, 48 h): 6.07±1.54 % of cells
- Cell cycle distribution sub-G1 (A549 cells; A549, 2.5 µM, 48 h): 11.98±3.62 % of cells
- Cell cycle distribution G0/G1 (A549 cells; A549, 5 µM, 24 h): 65.90±2.36 % of cells
- Cell cycle distribution G2/M (A549 cells; A549, 5 µM, 24 h): 13.62±2.25 % of cells
- Cell cycle distribution S (A549 cells; A549, 5 µM, 24 h): 12.18±2.45 % of cells
- Cell cycle distribution sub-G1 (A549 cells; A549, 5 µM, 24 h): 8.94±3.39 % of cells
- Cell cycle distribution G0/G1 (A549 cells; A549, 5 µM, 48 h): 68.55±8.03 % of cells
- Cell cycle distribution G2/M (A549 cells; A549, 5 µM, 48 h): 9.05±1.72 % of cells
- Cell cycle distribution S (A549 cells; A549, 5 µM, 48 h): 6.81±2.66 % of cells
- Cell cycle distribution sub-G1 (A549 cells; A549, 5 µM, 48 h): 15.74±6.03 % of cells
- Cell cycle distribution G0/G1 (A549 cells; A549, 10 µM, 24 h): 66.51±4.46 % of cells
- Cell cycle distribution G2/M (A549 cells; A549, 10 µM, 24 h): 11.43±2.88 % of cells
- Cell cycle distribution S (A549 cells; A549, 10 µM, 24 h): 9.82±2.73 % of cells
- Cell cycle distribution sub-G1 (A549 cells; A549, 10 µM, 24 h): 13.23±7.01 % of cells
- Cell cycle distribution G0/G1 (A549 cells; A549, 10 µM, 48 h): 68.54±6.87 % of cells
- Cell cycle distribution G2/M (A549 cells; A549, 10 µM, 48 h): 8.44±1.47 % of cells
- Cell cycle distribution S (A549 cells; A549, 10 µM, 48 h): 7.07±2.63 % of cells
- Cell cycle distribution sub-G1 (A549 cells; A549, 10 µM, 48 h): 16.15±6.33 % of cells
- Cell cycle distribution G0/G1 (A549 cells; A549, 20 µM, 24 h): 66.45±9.20 % of cells
- Cell cycle distribution G2/M (A549 cells; A549, 20 µM, 24 h): 7.16±2.15 % of cells
- Cell cycle distribution S (A549 cells; A549, 20 µM, 24 h): 5.23±2.38 % of cells
- Cell cycle distribution sub-G1 (A549 cells; A549, 20 µM, 24 h): 22.36±12.24 % of cells
- Cell cycle distribution G0/G1 (A549 cells; A549, 20 µM, 48 h): 63.07±6.59 % of cells
- Cell cycle distribution G2/M (A549 cells; A549, 20 µM, 48 h): 5.19±0.93 % of cells
- Cell cycle distribution S (A549 cells; A549, 20 µM, 48 h): 4.61±1.21 % of cells
- Cell cycle distribution sub-G1 (A549 cells; A549, 20 µM, 48 h): 27.32±6.78 % of cells
- Cell cycle distribution G0/G1 (A549 cells; A549, 40 µM, 24 h): 41.03±2.93 % of cells
- Cell cycle distribution G2/M (A549 cells; A549, 40 µM, 24 h): 12.87±5.29 % of cells
- Cell cycle distribution S (A549 cells; A549, 40 µM, 24 h): 11.34±0.58 % of cells
- Cell cycle distribution sub-G1 (A549 cells; A549, 40 µM, 24 h): 35.46±9.33 % of cells
- Cell cycle distribution G0/G1 (A549 cells; A549, 40 µM, 48 h): 16.49±3.46 % of cells
- Cell cycle distribution G2/M (A549 cells; A549, 40 µM, 48 h): 2.19±0.38 % of cells
- Cell cycle distribution S (A549 cells; A549, 40 µM, 48 h): 6.05±0.87 % of cells
- Cell cycle distribution sub-G1 (A549 cells; A549, 40 µM, 48 h): 75.27±4.12 % of cells
- Cell cycle distribution G0/G1 (RPMI 8226 cells; RPMI 8226, 2.5 µM, 24 h): 41.14±1.03 % of cells
- Cell cycle distribution G2 (RPMI 8226 cells; RPMI 8226, 2.5 µM, 24 h): 22.35±1.19 % of cells
- Cell cycle distribution S (RPMI 8226 cells; RPMI 8226, 2.5 µM, 24 h): 21.59±1.77 % of cells
- Cell cycle distribution Sub-G1 (RPMI 8226 cells; RPMI 8226, 2.5 µM, 24 h): 15.53±2.23 % of cells
- Cell cycle distribution G0/G1 (RPMI 8226 cells; RPMI 8226, 2.5 µM, 48 h): 35.8±1.49 % of cells
- Cell cycle distribution G2 (RPMI 8226 cells; RPMI 8226, 2.5 µM, 48 h): 16.99±2 % of cells
- Cell cycle distribution S (RPMI 8226 cells; RPMI 8226, 2.5 µM, 48 h): 26.22±0.97 % of cells
- Cell cycle distribution Sub-G1 (RPMI 8226 cells; RPMI 8226, 2.5 µM, 48 h): 21.49±0.94 % of cells
- Cell cycle distribution G0/G1 (RPMI 8226 cells; RPMI 8226, 5 µM, 24 h): 38.23±6.83 % of cells
- Cell cycle distribution G2 (RPMI 8226 cells; RPMI 8226, 5 µM, 24 h): 21.31±4.02 % of cells
- Cell cycle distribution S (RPMI 8226 cells; RPMI 8226, 5 µM, 24 h): 18.68±2.58 % of cells
- Cell cycle distribution Sub-G1 (RPMI 8226 cells; RPMI 8226, 5 µM, 24 h): 21.32±6.2 % of cells
- Cell cycle distribution G0/G1 (RPMI 8226 cells; RPMI 8226, 5 µM, 48 h): 40.3±3.15 % of cells
- Cell cycle distribution G2 (RPMI 8226 cells; RPMI 8226, 5 µM, 48 h): 15.23±5.04 % of cells
- Cell cycle distribution S (RPMI 8226 cells; RPMI 8226, 5 µM, 48 h): 19.12±2.51 % of cells
- Cell cycle distribution Sub-G1 (RPMI 8226 cells; RPMI 8226, 5 µM, 48 h): 25.53±7.59 % of cells
- Cell cycle distribution G0/G1 (RPMI 8226 cells; RPMI 8226, 10 µM, 24 h): 38.08±9.38 % of cells
- Cell cycle distribution G2 (RPMI 8226 cells; RPMI 8226, 10 µM, 24 h): 17.45±2.75 % of cells
- Cell cycle distribution S (RPMI 8226 cells; RPMI 8226, 10 µM, 24 h): 21.4±3.5 % of cells
- Cell cycle distribution Sub-G1 (RPMI 8226 cells; RPMI 8226, 10 µM, 24 h): 23.53±7.04 % of cells
- Cell cycle distribution G0/G1 (RPMI 8226 cells; RPMI 8226, 10 µM, 48 h): 38.5±2.77 % of cells
- Cell cycle distribution G2 (RPMI 8226 cells; RPMI 8226, 10 µM, 48 h): 18.78±2.32 % of cells
- Cell cycle distribution S (RPMI 8226 cells; RPMI 8226, 10 µM, 48 h): 18.61±4.5 % of cells
- Cell cycle distribution Sub-G1 (RPMI 8226 cells; RPMI 8226, 10 µM, 48 h): 28.01±5.09 % of cells
- Cell cycle distribution G0/G1 (RPMI 8226 cells; RPMI 8226, 20 µM, 24 h): 42.63±4.03 % of cells
- Cell cycle distribution G2 (RPMI 8226 cells; RPMI 8226, 20 µM, 24 h): 15.7±5.79 % of cells
- Cell cycle distribution S (RPMI 8226 cells; RPMI 8226, 20 µM, 24 h): 19.83±2.92 % of cells
- Cell cycle distribution Sub-G1 (RPMI 8226 cells; RPMI 8226, 20 µM, 24 h): 24.09±2.62 % of cells
- Cell cycle distribution G0/G1 (RPMI 8226 cells; RPMI 8226, 20 µM, 48 h): 31.66±10.94 % of cells
- Cell cycle distribution G2 (RPMI 8226 cells; RPMI 8226, 20 µM, 48 h): 17.47±1.42 % of cells
- Cell cycle distribution S (RPMI 8226 cells; RPMI 8226, 20 µM, 48 h): 20.74±2.14 % of cells
- Cell cycle distribution Sub-G1 (RPMI 8226 cells; RPMI 8226, 20 µM, 48 h): 29.68±10.49 % of cells
